Results from patent US20110053983A1, “(5R)-1,5-DIARYL-4,5-DIHYDRO-1H-PYRAZOLE-3-CARBOXAMIDINE DERIVATIVES HAVING CB1-ANTAGONISTIC ACTIVITY” (priority 2008, published 2011).
Entries after “also recorded” stand apart in the source; their conditions may differ. Where two headings read alike, the source gives them in different places.

How the values were obtained:
cannabinoid-CB1 receptor = molecular target: T1, cannabinoid-CB1 receptor (Rattus norvegicus, UniProt P20272); assay: In vivo CB1 receptor antagonism, CP-55,940-induced hypotension test; settings: for ED50: po, CP-55,940 (0.1 mg/kg i.v.) induced hypotension, read-out: CB-agonist induced blood pressure rat ID50; for activity in the in vivo CB1 mediated (CP-55,940-induced) hypotension test, in words: oral administration
T1 construct: Male normotensive rats (225-300 g; Harlan, Horst, The Netherlands) were anaesthetized; from tissue; host or cells: whole animal: male normotensive rats (Harlan)
Experimental: In vivo cannabinoid-CB1 receptor antagonism was assessed with the CP-55,940-induced hypotension test in rat. Male normotensive rats (225-300 g; Harlan, Horst, The Netherlands) were anaesthetized with pentobarbital (80 mg/kg ip). Blood pressure was measured, via a cannula inserted into the left carotid artery, by means of a Spectramed DTX-plus pressure transducer (Spectramed B. V., Bilthoven, The Netherlands). After amplification by a Nihon Kohden Carrier Amplifier (Type AP-621G; Nihon Kohden B. V., Amsterdam, The Netherlands), the blood pressure signal was registered on a personal computer (Compaq Deskpro 386s), by means of a Po-Ne-Mah data-acquisition program (Po-Ne-Mah Inc., Storrs, USA). Heart rate was derived from the pulsatile pressure signal. All compounds were administered orally as a microsuspension in 1% methylcellulose, 30 minutes before induction of the anesthesia, 60 minutes prior to administration of the CB1 receptor agonist CP-55,940. The injection volume was 10 ml/kg. After haemodynamic stabilization the CB1 receptor agonist CP-55,940 (0.1 mg/kg i. v.) was administered and the hypotensive effect established (Wagner, 2001).

[1] = molecular target: human cannabinoid CB1 receptor (Homo sapiens, UniProt P21554); assay: In vitro affinity for cannabinoid-CB1 receptors, displacement of [3H]CP-55,940; format: binding
Experimental: In vitro affinity for cannabinoid-CB1 receptors was determined using membrane preparations of Chinese hamster ovary (CHO) cells wherein the human cannabinoid CB1 receptor was stably transfected in conjunction with [^3H]CP-55,940 as radioligand. After incubation of a freshly prepared cell membrane preparation with the [^3H]-ligand, with or without addition of compounds of the invention, separation of bound and free ligand was performed by filtration over glassfiber filters. Radioactivity on the filter was measured by liquid scintillation counting. The binding data were either obtained by CEREP (128, rue Danton, 92500 Rueil-Malmaison, France) or at Solvay Pharmaceuticals B.V. (C. J. van Houtenlaan 36, 1381 C P Weesp, The Netherlands).

human CB1 receptors = human CB1 receptors (Homo sapiens, UniProt P21554); assay: In vitro CB1 receptor antagonism, inhibition of WIN 55,212-2-induced [3H]-arachidonic acid release in CHO cells; format: cell-based; settings: for Kb: read-out: functional activity inhibition AA release [3H]-Arachidonic acid pA2 (converted)
Experimental: In vitro cannabinoid-[…] receptor antagonism was assessed with human CB1 receptors cloned in Chinese hamster ovary (CHO) cells. CHO cells were grown in a Dulbecco's Modified Eagle's medium (DMEM) culture medium, supplemented with 10% heat-inactivated fetal calf serum. Medium was aspirated and replaced by DMEM, without fetal calf serum, but containing [^3H]-arachidonic acid and incubated overnight in a cell culture stove (5% CO2/95% air; 37° C.; water-saturated atmosphere). During this period [^3H]-arachidonic acid was incorporated in membrane phospholipids. On the test day, medium was aspirated and cells were washed three times using 0.5 mL DMEM, containing 0.2% bovine serum albumin (BSA). Stimulation of the CB1 receptor by WIN 55,212-2 lead to activation of PLA2 followed by release of [^3H]-arachidonic acid into the medium. This WIN 55,212-2-induced release was concentration-dependently antagonized by CB1 receptor antagonists.

[2] = h-CB1 receptor, CHO cell membranes, read-out: receptor binding displacement [3H]-CP-55,940 pKi (converted)
[3] = (5R) versus (5S)-enantiomer (compound 2)
[4] = h-CB1 receptor in CHO cells, WIN 55,212-2-induced release

T1 sequence (P20272 whole entry): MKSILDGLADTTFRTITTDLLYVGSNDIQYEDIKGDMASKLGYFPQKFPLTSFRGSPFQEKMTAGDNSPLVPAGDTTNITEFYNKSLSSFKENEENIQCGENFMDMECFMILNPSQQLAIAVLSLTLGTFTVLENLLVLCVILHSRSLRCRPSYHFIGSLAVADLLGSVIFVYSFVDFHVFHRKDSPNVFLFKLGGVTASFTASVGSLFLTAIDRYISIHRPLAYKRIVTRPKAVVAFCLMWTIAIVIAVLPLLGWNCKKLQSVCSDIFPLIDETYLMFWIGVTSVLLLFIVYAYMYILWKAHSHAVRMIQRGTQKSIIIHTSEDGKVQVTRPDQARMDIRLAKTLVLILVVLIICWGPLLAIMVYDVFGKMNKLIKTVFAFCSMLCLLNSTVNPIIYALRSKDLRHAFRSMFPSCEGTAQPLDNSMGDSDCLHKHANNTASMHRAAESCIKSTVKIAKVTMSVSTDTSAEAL
human cannabinoid CB1 receptor, sequence (P21554 whole entry): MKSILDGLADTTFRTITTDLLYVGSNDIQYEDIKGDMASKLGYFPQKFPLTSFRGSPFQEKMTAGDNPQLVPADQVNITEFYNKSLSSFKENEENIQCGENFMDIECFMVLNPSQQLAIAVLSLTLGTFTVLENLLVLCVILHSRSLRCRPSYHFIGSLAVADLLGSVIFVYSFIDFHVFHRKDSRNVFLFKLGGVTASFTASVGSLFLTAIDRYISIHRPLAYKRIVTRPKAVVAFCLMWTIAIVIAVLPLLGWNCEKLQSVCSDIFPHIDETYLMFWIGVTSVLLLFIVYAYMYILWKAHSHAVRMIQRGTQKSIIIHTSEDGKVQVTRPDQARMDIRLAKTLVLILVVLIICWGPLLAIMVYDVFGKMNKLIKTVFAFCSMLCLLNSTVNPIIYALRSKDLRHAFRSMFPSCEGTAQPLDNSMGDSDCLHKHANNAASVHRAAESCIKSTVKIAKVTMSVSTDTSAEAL
human CB1 receptors, sequence (P21554 whole entry): as above

activity in the in vivo CB1 mediated (CP-55,940-induced) hypotension test, in words (cannabinoid-CB1 receptor) | Ki [1, 2] | SMILES | ED50 (cannabinoid-CB1 receptor) | further results
 |  | CN/C(=N\S(=O)(=O)N1CCCCC1)C1=NN(c2ccc(Cl)cc2)C(c2ccccc2)C1 (racemic) [N-[(piperidin-1-yl)-sulfonyl]-N′-methyl-1-(4-chlorophenyl)-5-phenyl-4,5-dihydro-(1H)-pyrazole-3-carboxamidine, reference compound] | > 30 mg/kg | 
 |  | CN=C(NS(=O)(=O)N1CCC(F)(F)CC1)C1=NN(c2ccc(Cl)cc2)C(c2ccccc2F)C1 (racemic) [racemate 2, N-[(4,4-difluoropiperidin-1-yl)sulfonyl]-N′-methyl-1-(4-chlorophenyl)-5-(2-fluorophenyl)-4,5-dihydro-(1H)-pyrazole-3-carboxamidine] |  | melting point: 166 to 167 °C
potent activities | 25.1 nM | CN=C(NS(=O)(=O)N1CCC(F)(F)CC1)C1=NN(c2ccc(Cl)cc2)C(c2ccccc2)C1 (racemic) [racemate (1 + 2), N-[(4,4-difluoropiperidin-1-yl)sulfonyl]-N′-methyl-1-(4-chlorophenyl)-5-phenyl-4,5-dihydro-(1H)-pyrazole-3-carboxamidine] | 9 mg/kg | 
active; also recorded: potent activities | 10 nM | CN/C(=N\S(=O)(=O)N1CCC(F)(F)CC1)C1=NN(c2ccc(Cl)cc2)[C@@H](c2ccccc2)C1 (single isomer, unassigned) [Compound 1] | 6 mg/kg | antagonist potency (pA2) relative to the (5S)-enantiomer (human CB1 receptors; [3]): 40 times; Kb (human CB1 receptors; [4]): 1.58 nM; affinity for human CB1 receptors relative to the (5S)-enantiomer [1, 3]: 25 fold
inactive | 251 nM | CN/C(=N\S(=O)(=O)N1CCC(F)(F)CC1)C1=NN(c2ccc(Cl)cc2)[C@H](c2ccccc2)C1 (single isomer, unassigned) [Compound 2] | > 30 mg/kg | Kb (human CB1 receptors; [4]): 79.4 nM
 | 15.8 nM | CN/C(=N\S(=O)(=O)N1CCC(F)CC1)C1=NN(c2ccc(Cl)cc2)[C@@H](c2ccccc2)C1 [Compound 3, 5R-(+)-N-[(4-fluoropiperidin-1-yl)sulfonyl]-N′-methyl-1-(4-chlorophenyl)-5-phenyl-4,5-dihydro-(1H)-pyrazole-3-carboxamidine] |  | 
 |  | CN/C(=N\S(=O)(=O)N1CCC(C(F)(F)F)CC1)C1=NN(c2ccc(Cl)cc2)[C@@H](c2ccccc2)C1 [Compound 4, 5R-(+)-N-[(4-(trifluoromethyl)piperidin-1-yl)sulfonyl]-N′-methyl-1-(4-chlorophenyl)-5-phenyl-4,5-dihydro-(1H)-pyrazole-3-carboxamidine] |  | functional activity inhibition AA release [3H]-Arachidonic acid pA2 (human CB1 receptors; [4]): 9.5; Ki [1]: 3.16 nM
 |  | CN/C(=N\S(=O)(=O)N1CCCCC1)C1=NN(c2ccc(Cl)cc2)C(c2ccccc2)C1 (stereo not shown) [EP 1 713 475 Compound 10, reference compound] | > 30 mg/kg | 
